In PubChem BioAssay (NCI) one finds TGI and GI50 data, which are given here for 22 compounds.

What all share (test): inhibition of tumour cell growth, NCI panel, 48 h
Experiment [1] has as its system IGROV1 ovarian.
For experiment [2], the system named is SNB-19 CNS.
In experiment [3] the test system is MALME-3M melanoma.
Experiment [4] concerns SF-268 CNS.
The test system of experiment [5] is SK-MEL-5 melanoma.
For experiment [6], the system named is A549 NSCLC.
For experiment [7], the system named is SK-MEL-28 melanoma.
Experiment [8] has as its system SF-295 CNS.
Experiment [9] concerns NCI-H460 lung.
Experiment [10] relates to OVCAR-5 ovarian.
Experiment [11] concerns OVCAR-4 ovarian.
For experiment [12], the system named is NCI/ADR-RES ovarian.
Experiment [13] concerns DU-145 prostate.
Experiment [14] deals with A498 renal.
The test system of experiment [15] is HS 578T breast.

“And” between values parts separate entries of the source, which are not always exact repeats. Identical values can stand only once.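 In this assay, cells in 96-well plates receive the compound at five concentrations for 48 hours. Endpoints are linearly interpolated between the surrounding concentrations. GI50 marks 50% less growth. TGI marks complete inhibition of growth.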

Turning to `COC(=O)C(=Cc1cc(OC)c(OC)c(OC)c1-c1cc2c(cc1C(C)=O)OCO2)C(=O)OC`, the TGI in [1] amounted to 134 µM; in [2] it was 69.6 µM; in [3] it was 78.3 µM; in experiment [4], 133 µM; in [5], 70.1 µM; in [6] it was 165 µM. Also, the TGI is 78.1 µM in experiment [7], 102 µM in experiment [8], above 211 µM in experiment [9] and 74.1 µM in experiment [10].

Turning to `C/C(=C1/CCC/C(=C(/C)c2ccccc2)C1=O)c1ccccc1`, the TGI in experiment [1] was above 100 µM; in experiment [2], above 100 µM; in [3] it was 46.7 µM; in experiment [11] it was above 100 µM; in experiment [4], above 100 µM; in experiment [5], 47.8 µM. In addition, the TGI in experiment [6], in [7], in [8], in experiment [9] and in experiment [10] was above 100 µM each time.

Consider `COc1cc(OC)cc(-c2nc3cc(F)ccc3s2)c1`, for which the TGI in experiment [1] is 43.6 µM; in experiment [2], 49.2 µM; in experiment [3], above 100 µM; in [12], above 100 µM; in experiment [13], above 100 µM; in experiment [11] it was above 100 µM. Moreover, the TGI in experiment [4] is 32 µM; in [5], above 100 µM; in experiment [6], above 100 µM; in [8] it was 23.5 µM; in experiment [9], above 100 µM; in experiment [14], 62.9 µM. In experiment [10], this compound yielded a TGI above 100 µM.

Regarding `Cc1[nH]n(C2=NCCN2)c(=O)c1Cc1ccccc1`, the TGI in experiment [1], in experiment [2], in [3], in experiment [12], in experiment [11] and in experiment [4] was above 100 µM throughout. Also, the TGI in experiment [5], in experiment [6], in experiment [8], in [9], in experiment [14] and in experiment [15] was above 100 µM each time. The TGI in experiment [10] is above 100 µM.

For `NC(=S)Nc1ccc(S(=O)(=O)Nc2ccc(S(N)(=O)=O)cc2)cc1`, the TGI in experiment [1], in experiment [2], in experiment [3], in experiment [12], in experiment [13] and in experiment [11] was above 100 µM throughout. In addition, the TGI in experiment [5], in experiment [6], in experiment [7], in experiment [8], in experiment [9] and in [14] was above 100 µM each time. This compound gave a TGI in experiment [10] above 100 µM.

`COc1ccc(-c2cc(=O)c3ccccc3[nH]2)c(OC)c1`: the TGI in experiment [1], in [2], in experiment [3], in [4], in experiment [6] and in experiment [7] was above 100 µM throughout. Moreover, the TGI in experiment [8] and in experiment [9] was above 100 µM each time.

In the case of `Cc1ccc(S(=O)(=O)OC(c2ccc(Cl)cc2Cl)C2OC(=O)c3ccccc32)cc1` (stereo not given), the TGI in experiment [1], in experiment [2], in experiment [3], in [11], in experiment [4] and in experiment [5] was above 100 µM each time. Further, the TGI in experiment [6], in [7], in [8], in experiment [9] and in [10] was above 100 µM each time.

With `CC1(C)CC(=O)C(/C=N/c2nc(-c3ccccc3)cs2)=C(O)C1`, the TGI in experiment [1] is 87.9 µM; in experiment [2], above 100 µM; in experiment [12], above 100 µM; in experiment [13], above 100 µM; in [11] it was above 100 µM; in [5], above 100 µM. Besides, the TGI in [6], in [7], in experiment [8], in [9] and in experiment [10] was above 100 µM in each case.

Turning to `N#Cc1c(-c2ccccc2)cc(Nc2cccc(C(F)(F)F)c2)n2c1nc1ccccc12`, the TGI in experiment [3] came out at 8.32 µM; in [12] it was 7.15 µM; in experiment [13] it was 19.7 µM; in [11], 22.2 µM; in [4], 11.5 µM; in [5] it was 1.78 µM. Moreover, the TGI is 21.8 µM in experiment [7]; 12.6 µM in [8]; 17.7 µM in experiment [9]; 12.6 µM in experiment [14]; 10.7 µM in experiment [10].

As for `CCOC(=O)C(Cc1cn(S(=O)(=O)c2ccccc2)c2ccccc12)(NC(C)=O)C(=O)OCC`, the TGI in experiment [1] was above 100 µM; in experiment [2], above 100 µM; in experiment [3] it was above 100 µM; in [11] it was above 100 µM; in experiment [4] it was above 100 µM; in experiment [5], 33.7 µM. For the same compound, the TGI in experiment [6], in [7], in experiment [8], in [9] and in experiment [10] was above 100 µM throughout.

For `CCCCCCCCCCN(CCCCCCCCCC)C(=O)COc1c2cc(C(C)(C)C)cc1Cc1cc(C(C)(C)C)cc(c1OCC(=O)N(CCCCCCCCCC)CCCCCCCCCC)Cc1cc(C(C)(C)C)cc(c1OCC(=O)N(CCCCCCCCCC)CCCCCCCCCC)Cc1cc(C(C)(C)C)cc(c1OCC(=O)N(CCCCCCCCCC)CCCCCCCCCC)C2`, the TGI in experiment [1] stood at 24.8 µM; in experiment [2], 22.1 µM; in experiment [3], 28.7 µM; in [12], 29.2 µM; in [13], 31.8 µM; in experiment [11], 22.4 µM. Besides, the TGI amounted to 29.9 µM in experiment [4]; 26.4 µM in [5]; 30.4 µM in experiment [6]; 24.1 µM in [7]; 21.7 µM in experiment [8]; 26.2 µM in [9]. Also, the TGI stood at 29.1 µM in experiment [14] and 26.1 µM in experiment [10].

`CC(C)Oc1ccc2c(c1)OCC1Cc3ccccc3OC21` (stereo not given): the TGI in [1] was above 100 µM; in experiment [3], above 100 µM; in experiment [12] it was above 100 µM; in experiment [13] it was above 100 µM; in experiment [4], above 100 µM; in experiment [5], 47.5 µM. The TGI in [6], in experiment [8], in [14] and in [10] was above 100 µM throughout.

In the case of `COc1cccc(/C=C2\C(=O)N(C(=O)c3ccc(NC(C)=O)cc3)N=C2C)c1`, the TGI in [2], in experiment [3], in experiment [11], in [4], in [5] and in experiment [6] was above 100 µM in each case. Further, the TGI in experiment [7], in experiment [8], in experiment [9] and in experiment [10] was above 100 µM in each case.

For the compound `Cc1nn(C(=O)Cc2ccccc2)c2c1C(c1ccc(N(C)C)cc1)SC(N)=N2` (stereo not given), the TGI in [1], in experiment [2], in experiment [3], in [13], in experiment [4] and in experiment [5] was above 100 µM throughout. Besides, the TGI in [6], in [7], in experiment [8], in experiment [9], in experiment [14] and in [15] was above 100 µM in each case.

As to `CCOP(=O)(O)C1C(CO)OC(n2ccc(=O)[nH]c2=O)C1O` (stereo not given), the TGI in experiment [1], in [2], in [3], in [11], in experiment [4] and in experiment [5] was above 100 µM in each case. In addition, the TGI in experiment [6], in [7], in experiment [8], in [9], in experiment [14] and in experiment [15] was above 100 µM throughout.

For `CCO/N=C(/N)c1ncn(Cc2ccccc2)c1NCC(OCC)OCC`, the TGI in experiment [1], in experiment [2], in [3], in experiment [4], in [5] and in experiment [6] was above 100 µM throughout. For the same compound, the TGI in [8], in [9], in experiment [14] and in [10] was above 100 µM each time.

With `CCc1c(C)c(C#N)c(=S)n(C2OC(COC(C)=O)C(OC(C)=O)C(OC(C)=O)C2OC(C)=O)c1C` (stereo not given), the TGI is above 100 µM in experiment [1]; > 100 µM and 93 µM in [2]; above 100 µM in experiment [3]; above 100 µM in experiment [12]; above 100 µM in [13]; above 100 µM in experiment [11]. Further, the TGI in experiment [4], in experiment [5], in [6], in [7], in experiment [8] and in [9] was above 100 µM each time. The TGI was > 100 µM and 92.4 µM in experiment [14]; above 100 µM in [10]. Besides, the GI50 is > 100 µM and 21.5 µM in [2]; > 100 µM and 23 µM in experiment [8]; > 100 µM and 30.2 µM in experiment [14]; > 100 µM and 45.9 µM in experiment [10].

For the compound `O=C1NCCCNCCCNCCCNC(=O)c2cccc1n2`, the TGI in experiment [1], in experiment [2], in [3], in [12], in [11] and in experiment [4] was above 100 µM each time. Further, the TGI in [5], in experiment [6], in experiment [7], in [8], in [9] and in [15] was above 100 µM throughout. In experiment [10], this compound showed a TGI above 100 µM.

As for `CC(C)N1CN(C(C(=O)N[C@@H]2C(=O)N3C2SC(C)(C)C3C(=O)O)c2ccccc2)CSC1=S` (stereo not given in full), the TGI in experiment [1], in experiment [2], in [3], in [11], in experiment [4] and in experiment [5] was above 100 µM in each case. The TGI in experiment [7], in experiment [8], in experiment [9], in experiment [14] and in experiment [10] was above 100 µM in each case.

For the compound `O=C1O/C(=C(/Br)c2ccc(Cl)c(Cl)c2)c2ccccc21`, the TGI in [1], in experiment [2], in experiment [12], in experiment [13], in [11] and in experiment [4] was above 10 µM in each case. Also, the TGI in experiment [5], in experiment [6], in [7], in [8], in experiment [9] and in [15] was above 10 µM each time. For the same compound, in [10], the TGI is above 10 µM.

For `C=C(CC[C@@H](C)[C@H]1CC[C@@]2(C)C3=C(CC[C@]12C)[C@@]1(C)CC[C@H](O)[C@@H](C)C1CC3)C(C)C` (stereo not given in full), the TGI in experiment [1] is 8.32 µM; in [2] it was 4.45 µM; in [3], 2.51 µM; in experiment [12], 3.65 µM; in [11], 3.3 µM; in [5] it was 2.55 µM. In addition, the TGI in experiment [6] came to 2.32 µM; in experiment [7] it was 2.51 µM; in experiment [8], 2.27 µM; in experiment [9], 2.09 µM; in experiment [14] it was 2.58 µM; in [15], 3.13 µM. The TGI in experiment [10] came out at 2.67 µM.

For `O=C1NC2OCC(O)C(O)C2O1` (stereo not given), the TGI in experiment [1], in experiment [2], in [3], in [11], in [4] and in [5] was above 100 µM each time. Besides, the TGI in experiment [6], in [7], in experiment [8], in experiment [9], in [14] and in experiment [10] was above 100 µM throughout.
